Measured values from US3954875A, “Benzophenone herbicides” (Rohm and Haas Company, priority 1973, dated 1976).

Experiments:
Monocots = assay: Preemergence weed control in flats (Example 14, Table II), monocot weeds; type: in vivo; details: about 2 weeks after application
Procedure: (§1) Using the procedure described below, the benzophenones of Examples 1 and 2 were evaluated for control of the following weeds:
Barnyardgrass (Echinochloa crusgalli)
Crabgrass (Digitaria spp.)
Foxtail (Setaria italica)
Johnsongrass (Sorghum halepense)
Quackgrass (Agropyron repens)
Yellow millet (Panicum miliaceaum)
Wild oats (Sesbania spp.)
(§2) The following test procedure is employed. Seeds of selected weeds are planted in soil in flats, and the flats are treated with the test compound immediately after the planting. The compound to be evaluated is dissolved in acetone, diluted with water, and sprayed over the flats using a carrier volume equivalent to 50 gallons per acre at the rate of application (pounds per acre, lb/A.) specified in the tables. About 2 weeks after the application of the test compound, the state of growth of the plants is observed and the phytotoxic effect of the compound is evaluated. Table II gives the average percent control achieved by the test compounds in terms of the percent of the plants which are killed by the compounds.

Dicots = assay: Preemergence weed control in flats (Example 14, Table II), dicot weeds; type: in vivo; details: about 2 weeks after application
Procedure: as §1
Coffeeweed (Sesbania spp.)
velvetleaf (Abutilon theophrasti)
as §2

Structure (SMILES)	% Control, Monocots (average percent of the plants killed) (Monocots; 2 lb./A.) [%]	% Control, Monocots (average percent of the plants killed) (Monocots; 4 lb./A.) [%]	% Control, Monocots (average percent of the plants killed) (Monocots; 8 lb./A.) [%]	% Control, Dicots (average percent of the plants killed) (Dicots; 2 lb./A.) [%]	% Control, Dicots (average percent of the plants killed) (Dicots; 4 lb./A.) [%]	% Control, Dicots (average percent of the plants killed) (Dicots; 8 lb./A.) [%]
COc1ccc(C(=O)c2cccc(C(F)(F)F)c2)cc1C [Example 1, 4-methoxy-3-methyl-3'-trifluoromethylbenzophenone]	91	97	99	65	70	85
COc1ccc(C(=O)c2cccc(C)c2)cc1C [Example 2, 4-methoxy-3,3'-dimethylbenzophenone]	88	93	100	60	55	65
